In patent publication US20060069132A1, “Azolecarboxamide herbicides” (priority 2004, published 2006):

Assays:
large crabgrass = assay: Test B pre-/postemergence herbicide test; type: in vivo, Digitaria sanguinalis; settings: for Plant response rating (0 to 100 scale), Crabgrass, Large: 0 is no effect, preemergence; for Crabgrass, Large plant response rating: postemergence
Method in brief: (§1)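 Test chemicals in a non-phytotoxic solvent mixture with surfactant were applied preemergence to seeded species and postemergence to plants 2-18 cm tall (1- to 4-leaf stage); rice and barnyardgrass were also tested in a flooded paddy at the 2-leaf stage. Visual rating versus controls after 13-15 days in greenhouse, scale 0 (no effect) to 100 (complete control).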

wild oat = assay: Test B postemergence herbicide test; type: in vivo, Avena fatua
Method in brief: (§2)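 Each value is a visual 0–100 response rating taken against controls 13 to 15 days after treatment in the greenhouse. Plants received formulated chemical postemergence at the 1- to 4-leaf stage or, in flooded paddy, at the 2-leaf stage.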

rice [1] = assay: Test C flooded paddy test; type: in vivo, Oryza sativa; settings: for Plant response rating, Rice: 500 g ai/ha, visual rating after 12 to 14 days
Method in brief: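 Postemergence sprays applied to plants 2 to 18 cm tall (1- to 4-leaf stage); paddy species grown to 2-leaf stage under flooding. After 12 to 14 days in greenhouse, visual rating versus untreated controls on 0–100 scale (0 no effect, 100 complete control).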

cocklebur = assay: Test B pre-/postemergence herbicide test; type: in vivo, Xanthium strumarium; settings: for Plant response rating (0 to 100 scale), Cocklebur: 0 is no effect; for Cocklebur plant response rating: postemergence
Method in brief: as §1

[2] = tested on: smallflower umbrella sedge; assay: Test C flooded paddy test; type: in vivo, Cyperus difformis; settings: for Plant response rating, Sedge, Umbrella: 500 g ai/ha, visual rating after 12 to 14 days
velvetleaf = assay: Test B pre-/postemergence herbicide test; type: in vivo, Abutilon theophrasti; settings: for Plant response rating (0 to 100 scale), Velvetleaf: 0 is no effect, preemergence
Method in brief: as §1

ducksalad [3] = assay: Test B flooded paddy test; type: in vivo, Heteranthera limosa; settings: 1000 g ai/ha, scale 0 to 100 (0 no effect, 100 complete control)
Method in brief: (§3)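 Paddy species grown to the 2-leaf stage under flooding; blackgrass sprayed postemergence at 2–18 cm (1- to 4-leaf stage). Plants kept in a greenhouse for 13 to 15 days, then visually rated against controls on 0 (no effect) to 100 (complete control).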

Surinam grass = assay: Test B pre-/postemergence herbicide test; type: in vivo, Urochloa decumbens; settings: for Plant response rating (0 to 100 scale), Surinam Grass: 0 is no effect
Method in brief: as §1

rice [4] = assay: Test B flooded paddy test; type: in vivo, Oryza sativa; settings: 1000 g ai/ha, scale 0 to 100 (0 no effect, 100 complete control)
Method in brief: as §3

barnyardgrass [5] = assay: Test B pre-/postemergence herbicide test; type: in vivo, Echinochloa crus-galli; settings: for Plant response rating (0 to 100 scale), Barnyardgrass: 0 is no effect; for Barnyardgrass plant response rating: postemergence
Method in brief: as §1

lambsquarters = assay: Test B pre-/postemergence herbicide test; type: in vivo, Chenopodium album; settings: for Plant response rating (0 to 100 scale), Lambsquarters: 0 is no effect
Method in brief: as §1

corn = assay: Test B pre-/postemergence herbicide test; type: in vivo, Zea mays; settings: for Plant response rating (0 to 100 scale), Corn: 0 is no effect; for Corn plant response rating: postemergence
Method in brief: as §1

[6] = tested on: small flower umbrella sedge; assay: Test B flooded paddy test; type: in vivo, Cyperus difformis; settings: 1000 g ai/ha, scale 0 to 100 (0 no effect, 100 complete control)
Method in brief: as §3

giant foxtail = assay: Test B pre-/postemergence herbicide test; type: in vivo, Setaria faberi; settings: for Plant response rating (0 to 100 scale), Foxtail, Giant: 0 is no effect; for Foxtail, Giant plant response rating: postemergence
Method in brief: as §1

barnyardgrass [7] = assay: Test B flooded paddy test; type: in vivo, Echinochloa crus-galli; settings: 1000 g ai/ha, scale 0 to 100 (0 no effect, 100 complete control)
Method in brief: as §3

ducksalad [8] = assay: Test C flooded paddy test; type: in vivo, Heteranthera limosa; settings: for Plant response rating, Ducksalad: 500 g ai/ha, visual rating after 12 to 14 days
blackgrass = assay: Test B postemergence herbicide test; type: in vivo, Alopecurus myosuroides; settings: postemergence
Method in brief: as §3

wheat = assay: Test B postemergence herbicide test; type: in vivo, Triticum aestivum; set-up: key to Wheat plant response rating: 0 = no effect, 100 = complete control
Method in brief: as §2

pigweed = assay: Test B pre-/postemergence herbicide test; type: in vivo, Amaranthus retroflexus; settings: for Plant response rating (0 to 100 scale), Pigweed: 0 is no effect
Method in brief: as §1

barnyardgrass [9] = assay: Test C flooded paddy test; type: in vivo, Echinochloa crus-galli; settings: for Plant response rating, Barnyardgrass: 500 g ai/ha, visual rating after 12 to 14 days
Method in brief: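 Ratings (0 = no effect, 100 = complete control) come from visual comparison with untreated plants after 12 to 14 days in the greenhouse. Treatment was postemergence at the 1- to 4-leaf stage (2–18 cm), or at the 2-leaf stage for the flooded paddy barnyardgrass.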

morningglory = assay: Test B pre-/postemergence herbicide test; type: in vivo, Ipomoea coccinea; settings: for Plant response rating (0 to 100 scale), Morningglory: 0 is no effect
Method in brief: as §1

[10] = 125 g ai/ha, 100 is complete control
[11] = 125 g ai/ha, visual rating, scale 0 (no effect) to 100 (complete control)
[12] = 500 g ai/ha, scale 0 to 100, 0 is no effect, 100 is complete control
[13] = 125 g ai/ha, visual rating, scale 0 (no effect) to 100 (complete control), postemergence
[14] = postemergence, 500 g ai/ha, scale 0 to 100, 0 is no effect, 100 is complete control
[15] = 125 g ai/ha, scale 0 to 100 (0 no effect, 100 complete control)
[16] = 250 g ai/ha, scale of 0 to 100, 0 is no effect, 100 is complete control
[17] = scale 0 to 100 (0 no effect, 100 complete control)
[18] = 125 g ai/ha, 100 is complete control, preemergence
[19] = 500 g ai/ha, visual rating, 0 = no effect, 100 = complete control, preemergence
[20] = 62 g ai/ha, scale 0 to 100 (0 no effect, 100 complete control)
[21] = Postemergence, 500 g ai/ha, scale 0 (no effect) to 100 (complete control)

Cc1nn(C(C)(C)C)cc1C(=O)Nc1cc(C(=O)N(C)C)ccc1F [Compound 344]
Plant response rating (0 to 100 scale), Crabgrass, Large (large crabgrass; [10]): 60
Crabgrass, Large plant response rating (large crabgrass; [11]): 0
Crabgrass, Large plant response rating (large crabgrass; [12]): 10
Oat, Wild plant response rating (wild oat; [13]): 0
Oat, Wild plant response rating (wild oat; [14]): 0
Rice plant response rating (rice [1]; 62 g ai/ha, scale 0 to 100): 0
Rice plant response rating (rice [1]; [15]): 0
Rice plant response rating (rice [1]; [16]): 0
Plant response rating, Rice (rice [1]; [17]): 15
Plant response rating (0 to 100 scale), Cocklebur (cocklebur; [18]): 20
Cocklebur plant response rating (cocklebur; [11]): 0
Plant response rating, Cocklebur (cocklebur; [19]): 70
Cocklebur plant response rating (cocklebur; [12]): 10
Sedge, Umbrella plant response rating ([2]; 62 g ai/ha, scale 0 to 100): 0
Sedge, Umbrella plant response rating [2, 15]: 75
Sedge, Umbrella plant response rating [2, 16]: 75
Plant response rating, Sedge, Umbrella [2, 17]: 85
Plant response rating (0 to 100 scale), Velvetleaf (velvetleaf; [10]): 40
Velvetleaf plant response rating (velvetleaf; [13]): 20
Velvetleaf plant response rating (velvetleaf; [14]): 30
Ducksalad plant response rating (ducksalad [3]): 80
Plant response rating (0 to 100 scale), Surinam Grass (Surinam grass; [18]): 30
Surinam Grass plant response rating (Surinam grass; [13]): 0
Plant response rating, Surinam Grass (Surinam grass; [19]): 100
Surinam Grass plant response rating (Surinam grass; [14]): 10
Rice plant response rating (rice [4]): 70
Plant response rating (0 to 100 scale), Barnyardgrass (barnyardgrass [5]; [18]): 20
Barnyardgrass plant response rating (barnyardgrass [5]; [11]): 0
Plant response rating, Barnyardgrass (barnyardgrass [5]; [19]): 70
Barnyardgrass plant response rating (barnyardgrass [5]; [12]): 10
Plant response rating (0 to 100 scale), Lambsquarters (lambsquarters; [18]): 90
Lambsquarters plant response rating (lambsquarters; [13]): 20
Plant response rating, Lambsquarters (lambsquarters; [19]): 100
Lambsquarters plant response rating (lambsquarters; [14]): 40
Plant response rating (0 to 100 scale), Corn (corn; [18]): 10
Corn plant response rating (corn; [11]): 10
Plant response rating, Corn (corn; [19]): 90
Corn plant response rating (corn; [12]): 10
Sedge, Umbrella plant response rating [6]: 80
Plant response rating (0 to 100 scale), Foxtail, Giant (giant foxtail; [18]): 10
Foxtail, Giant plant response rating (giant foxtail; [11]): 10
Plant response rating, Foxtail, Giant (giant foxtail; [19]): 60
Foxtail, Giant plant response rating (giant foxtail; [12]): 10
Barnyardgrass plant response rating (barnyardgrass [7]): 60
Ducksalad plant response rating (ducksalad [8]; 62 g ai/ha, scale 0 to 100): 0
Ducksalad plant response rating (ducksalad [8]; [15]): 0
Ducksalad plant response rating (ducksalad [8]; [16]): 20
Plant response rating, Ducksalad (ducksalad [8]; [17]): 45
Blackgrass plant response rating (blackgrass; [11]): 0
Blackgrass plant response rating (blackgrass; [12]): 0
Wheat plant response rating (wheat; [13]): 0
Wheat plant response rating (wheat; [14]): 10
Plant response rating (0 to 100 scale), Pigweed (pigweed; [18]): 90
Pigweed plant response rating (pigweed; [13]): 20
Plant response rating, Pigweed (pigweed; [19]): 90
Pigweed plant response rating (pigweed; [14]): 50
Barnyardgrass plant response rating (barnyardgrass [9]; [20]): 0
Barnyardgrass plant response rating (barnyardgrass [9]; [15]): 0
Barnyardgrass plant response rating (barnyardgrass [9]; [16]): 0
Plant response rating, Barnyardgrass (barnyardgrass [9]; [17]): 0
Plant response rating (0 to 100 scale), Morningglory (morningglory; [18]): 10
Morningglory plant response rating (morningglory; [13]): 10
Plant response rating, Morningglory (morningglory; [19]): 80
Morningglory plant response rating (morningglory; [14]): 50

CCc1nn(C(C)(C)C)nc1C(=O)Nc1cc(C(=O)N(C)CC)ccc1F [Compound 388]
Plant response rating (0 to 100 scale), Crabgrass, Large (large crabgrass; [10]): 80
Crabgrass, Large plant response rating (large crabgrass; [11]): 20
Crabgrass, Large plant response rating (large crabgrass; [12]): 20
Oat, Wild plant response rating (wild oat; [13]): 0
Oat, Wild plant response rating (wild oat; [21]): 10
Rice plant response rating (rice [1]; 62 g ai/ha, scale 0 to 100): 15
Rice plant response rating (rice [1]; [15]): 55
Rice plant response rating (rice [1]; [16]): 65
Plant response rating, Rice (rice [1]; [17]): 70
Plant response rating (0 to 100 scale), Cocklebur (cocklebur; [18]): 0
Cocklebur plant response rating (cocklebur; [11]): 10
Cocklebur plant response rating (cocklebur; [12]): 20
Sedge, Umbrella plant response rating ([2]; 62 g ai/ha, scale 0 to 100): 65
Sedge, Umbrella plant response rating [2, 15]: 70
Sedge, Umbrella plant response rating [2, 16]: 75
Plant response rating, Sedge, Umbrella [2, 17]: 80
Plant response rating (0 to 100 scale), Velvetleaf (velvetleaf; [10]): 10
Velvetleaf plant response rating (velvetleaf; [13]): 20
Velvetleaf plant response rating (velvetleaf; [21]): 40
Ducksalad plant response rating (ducksalad [3]): 80
Plant response rating (0 to 100 scale), Surinam Grass (Surinam grass; [18]): 20
Surinam Grass plant response rating (Surinam grass; [13]): 10
Surinam Grass plant response rating (Surinam grass; [21]): 20
Rice plant response rating (rice [4]): 70
Plant response rating (0 to 100 scale), Barnyardgrass (barnyardgrass [5]; [18]): 50
Barnyardgrass plant response rating (barnyardgrass [5]; [11]): 0
Barnyardgrass plant response rating (barnyardgrass [5]; [12]): 10
Plant response rating (0 to 100 scale), Lambsquarters (lambsquarters; [18]): 90
Lambsquarters plant response rating (lambsquarters; [13]): 60
Lambsquarters plant response rating (lambsquarters; [21]): 70
Plant response rating (0 to 100 scale), Corn (corn; [18]): 30
Corn plant response rating (corn; [11]): 10
Corn plant response rating (corn; [12]): 20
Sedge, Umbrella plant response rating [6]: 70
Plant response rating (0 to 100 scale), Foxtail, Giant (giant foxtail; [18]): 20
Foxtail, Giant plant response rating (giant foxtail; [11]): 10
Foxtail, Giant plant response rating (giant foxtail; [12]): 30
Barnyardgrass plant response rating (barnyardgrass [7]): 70
Ducksalad plant response rating (ducksalad [8]; 62 g ai/ha, scale 0 to 100): 0
Ducksalad plant response rating (ducksalad [8]; [15]): 0
Ducksalad plant response rating (ducksalad [8]; [16]): 45
Plant response rating, Ducksalad (ducksalad [8]; [17]): 80
Blackgrass plant response rating (blackgrass; [11]): 0
Blackgrass plant response rating (blackgrass; [12]): 20
Wheat plant response rating (wheat; [13]): 0
Wheat plant response rating (wheat; 500 g ai/ha, scale 0 to 100, 0 no effect, 100 complete control, preemergence): 90
Wheat plant response rating (wheat; [21]): 10
Plant response rating (0 to 100 scale), Pigweed (pigweed; [18]): 80
Pigweed plant response rating (pigweed; [13]): 40
Pigweed plant response rating (pigweed; [21]): 50
Barnyardgrass plant response rating (barnyardgrass [9]; [20]): 0
Barnyardgrass plant response rating (barnyardgrass [9]; [15]): 10
Barnyardgrass plant response rating (barnyardgrass [9]; [16]): 35
Plant response rating, Barnyardgrass (barnyardgrass [9]; [17]): 65
Plant response rating (0 to 100 scale), Morningglory (morningglory; [18]): 0
Morningglory plant response rating (morningglory; [13]): 10
Morningglory plant response rating (morningglory; [21]): 50
